Values of other authors as cited in patent US20220175741A1, “COMPOSITIONS, DEVICES AND METHODS FOR TREATING AUTISM” (priority 2017, published 2022).

Experiments:
[1] = system: child's autistic symptoms; details: one child; Rodakis, Microbial Ecology in Health & Disease 2015
children with Autism = details: within a few weeks of treatment; Sandler et al, Journal of Child Neurology 2000

SMILES | autistic symptoms [1] | behavioural changes of autistic children (children with Autism)
CC1(C)S[C@@H]2[C@H](NC(=O)[C@H](N)c3ccc(O)cc3)C(=O)N2[C@H]1C(=O)O [amoxycillin] | reversed almost completely | –
CN[C@H](CC(C)C)C(=O)N[C@H]1C(=O)N[C@@H](CC(N)=O)C(=O)N[C@H]2C(=O)N[C@H]3C(=O)N[C@H](C(=O)N[C@H](C(=O)O)c4cc(O)cc(O)c4-c4cc3ccc4O)[C@H](O)c3ccc(c(Cl)c3)Oc3cc2cc(c3O[C@@H]2O[C@H](CO)[C@@H](O)[C@H](O)[C@H]2O[C@H]2C[C@](C)(N)[C@H](O)[C@H](C)O2)Oc2ccc(cc2Cl)[C@H]1O [vancomycin] | – | reversal of behavioural changes and progress to normality
